Measured values as given in patent US12559506B2, “Indazole based compounds and associated methods of use” (Arvinas Operations, Inc., priority 2021, dated 2026).
Read-outs that look alike come from different tables or passages of the source.

Target: T1, LRRK2 (endogenous, HiBit tagged) (Homo sapiens, UniProt Q5S007)
T1 construct: endogenous in cells; host or cells: HEK293 cells with HiBit knock-in at the endogenous LRRK2 locus, stably expressing firefly luciferase
Assay: Endogenous LRRK2 degradation assay, endogenous gene C-terminally HiBit-tagged in HEK293 cells (Nano-Glo Dual Luciferase)
Type: cell-based
Procedure, shortened: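 LRRK2-HiBit quantified via Nano-Glo Dual Luciferase in HEK293 knock-in cells co-expressing firefly luciferase, after 24 h exposure to compound (1 μM final top, 1:3, 11 points). Values normalised to DMSO median per plate and curve-fitted; Alamar Blue viability run alongside.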

[1] = endogenous HiBit-tagged LRRK2 in HEK293 cells, 24 hours treatment, read-out: **Endogenous WT Dmax (%)
[2] = endogenous HiBit-tagged LRRK2 in HEK293 cells, 24 hours treatment, read-out: *Endogenous WT DC50
[3] = endogenous HiBit-tagged LRRK2 in HEK293 cells, 24 hours treatment, read-out: Endogenous WT DC50
[4] = endogenous HiBit-tagged LRRK2 in HEK293 cells, 24 hours treatment, read-out: Endogenous WT Dmax

T1 sequence (Q5S007 whole entry): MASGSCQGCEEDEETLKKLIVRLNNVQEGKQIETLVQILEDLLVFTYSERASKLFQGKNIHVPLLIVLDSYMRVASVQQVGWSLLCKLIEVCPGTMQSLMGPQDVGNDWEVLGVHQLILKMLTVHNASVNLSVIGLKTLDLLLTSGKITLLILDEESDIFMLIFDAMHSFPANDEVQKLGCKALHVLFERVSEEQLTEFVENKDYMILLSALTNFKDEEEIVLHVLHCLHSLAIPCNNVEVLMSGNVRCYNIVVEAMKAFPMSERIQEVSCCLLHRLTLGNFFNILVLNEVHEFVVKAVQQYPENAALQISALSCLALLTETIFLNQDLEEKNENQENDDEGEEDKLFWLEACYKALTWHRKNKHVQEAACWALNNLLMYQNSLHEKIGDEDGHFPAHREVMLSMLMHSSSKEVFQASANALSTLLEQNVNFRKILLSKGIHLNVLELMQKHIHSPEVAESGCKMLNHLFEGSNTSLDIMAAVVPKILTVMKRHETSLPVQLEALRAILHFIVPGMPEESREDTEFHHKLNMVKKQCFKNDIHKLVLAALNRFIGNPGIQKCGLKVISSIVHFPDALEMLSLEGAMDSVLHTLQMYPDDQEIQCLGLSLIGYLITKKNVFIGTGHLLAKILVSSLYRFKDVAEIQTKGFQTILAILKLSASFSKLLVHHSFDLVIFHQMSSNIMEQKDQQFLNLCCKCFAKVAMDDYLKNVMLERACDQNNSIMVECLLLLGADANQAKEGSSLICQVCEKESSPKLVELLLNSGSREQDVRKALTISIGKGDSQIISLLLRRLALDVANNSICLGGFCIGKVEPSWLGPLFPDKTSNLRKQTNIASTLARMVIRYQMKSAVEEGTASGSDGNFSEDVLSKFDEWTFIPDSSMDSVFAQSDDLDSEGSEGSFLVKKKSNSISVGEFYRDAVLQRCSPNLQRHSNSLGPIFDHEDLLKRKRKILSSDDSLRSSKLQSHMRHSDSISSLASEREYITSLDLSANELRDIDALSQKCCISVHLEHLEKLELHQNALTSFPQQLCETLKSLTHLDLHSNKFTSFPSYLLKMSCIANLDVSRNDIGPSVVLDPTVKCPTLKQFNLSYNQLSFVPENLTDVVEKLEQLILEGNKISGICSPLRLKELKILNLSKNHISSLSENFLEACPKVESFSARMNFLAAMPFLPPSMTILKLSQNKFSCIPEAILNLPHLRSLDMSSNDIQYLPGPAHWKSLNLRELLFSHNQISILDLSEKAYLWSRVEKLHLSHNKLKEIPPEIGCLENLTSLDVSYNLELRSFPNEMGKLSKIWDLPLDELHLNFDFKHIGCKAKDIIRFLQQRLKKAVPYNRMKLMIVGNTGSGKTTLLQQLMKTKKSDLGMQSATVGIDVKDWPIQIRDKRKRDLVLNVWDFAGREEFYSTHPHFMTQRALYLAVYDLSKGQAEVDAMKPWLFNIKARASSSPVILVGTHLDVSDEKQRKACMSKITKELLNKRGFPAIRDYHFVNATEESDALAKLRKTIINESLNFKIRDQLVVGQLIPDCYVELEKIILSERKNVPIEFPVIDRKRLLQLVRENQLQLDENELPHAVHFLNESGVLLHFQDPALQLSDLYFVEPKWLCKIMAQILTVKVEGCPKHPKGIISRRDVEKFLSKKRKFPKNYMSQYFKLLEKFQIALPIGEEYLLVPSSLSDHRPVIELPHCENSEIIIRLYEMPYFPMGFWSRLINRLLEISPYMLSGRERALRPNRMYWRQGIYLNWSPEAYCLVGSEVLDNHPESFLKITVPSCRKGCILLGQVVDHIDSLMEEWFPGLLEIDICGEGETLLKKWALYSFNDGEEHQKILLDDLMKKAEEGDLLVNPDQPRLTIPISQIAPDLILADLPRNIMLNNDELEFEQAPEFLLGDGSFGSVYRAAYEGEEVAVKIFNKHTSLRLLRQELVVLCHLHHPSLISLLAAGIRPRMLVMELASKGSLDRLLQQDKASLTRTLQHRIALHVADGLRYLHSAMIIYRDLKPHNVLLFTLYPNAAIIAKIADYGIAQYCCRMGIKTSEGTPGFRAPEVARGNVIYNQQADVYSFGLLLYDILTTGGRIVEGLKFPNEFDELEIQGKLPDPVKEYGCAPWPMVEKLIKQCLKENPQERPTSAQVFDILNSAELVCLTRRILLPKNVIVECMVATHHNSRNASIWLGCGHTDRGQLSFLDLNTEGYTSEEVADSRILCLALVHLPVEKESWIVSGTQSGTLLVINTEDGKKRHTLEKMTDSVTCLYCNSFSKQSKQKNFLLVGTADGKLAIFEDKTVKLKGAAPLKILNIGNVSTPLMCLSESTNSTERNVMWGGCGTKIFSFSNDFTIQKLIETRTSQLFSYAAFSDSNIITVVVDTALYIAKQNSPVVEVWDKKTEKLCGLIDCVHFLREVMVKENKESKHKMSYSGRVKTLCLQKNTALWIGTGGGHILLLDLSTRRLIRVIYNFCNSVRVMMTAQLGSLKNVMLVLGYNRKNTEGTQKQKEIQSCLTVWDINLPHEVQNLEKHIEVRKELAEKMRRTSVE

Structure (SMILES)	DC50 [3] [nM]	Dmax [4] [%]	other results
CC1(Oc2ccc3[nH]nc(-c4cc(N5CCC(CN6CCN(CC7CCN(c8cc9c(cc8F)C(=O)N(C8CCC(=O)NC8=O)C9)CC7)CC6)CC5)ncn4)c3c2)CC1 (centres unmarked) [Compound 180, 3-[6-fluoro-5-[4-[[4-[[1-[6-[5-(1-methylcyclopropoxy)-1H-indazol-3-yl]pyrimidin-4-yl]-4-piperidyl]methyl]piperazin-1-yl]methyl]-1-piperidyl]-1-oxo-isoindolin-2-yl]piperidine-2,6-dione]	–	–	Dmax (endogenous HiBit-tagged LRRK2, HEK293 cells, 24 hours, read-out: **Endogenous WT Dmax (%)): ≥ 70%; DC50 (endogenous HiBit-tagged LRRK2, HEK293 cells, 24 hours, read-out: *Endogenous WT DC50): < 10 nM
COc1c(N2CCC(CN3CCN(CC4CCN(c5cc(-c6n[nH]c7cc(F)c(OC8(C)CC8)cc67)ncn5)CC4)C(C)(C)C3)CC2)ccc2c1CN(C1CCC(=O)NC1=O)C2=O (centres unmarked) [Compound 278, 3-{5-[4-({4-[(1-{6-[6-fluoro-5-(1-methylcyclopropoxy)-1H-indazol-3-yl]pyrimidin-4-yl}piperidin-4-yl)methyl]-3,3-dimethylpiperazin-1-yl}methyl)piperidin-1-yl]-4-methoxy-1-oxo-2,3-dihydro-1H-isoindol-2-yl}piperidine-2,6-dione]	–	–	Dmax [1]: 50 to 70%; DC50 [2]: < 10 nM
CC1(Oc2ccc3[nH]nc(-c4cc(N5CCC(OC6CCC7(CC6)CN(c6ccc8c(c6F)CN(C6CCC(=O)NC6=O)C8=O)C7)CC5)ncn4)c3c2)CC1 (centres unmarked) [Compound 374, 3-(4-fluoro-5-{7-[(1-{6-[5-(1-methylcyclopropoxy)-1H-indazol-3-yl]pyrimidin-4-yl}piperidin-4-yl)oxy]-2-azaspiro[3.5]nonan-2-yl}-1-oxo-2,3-dihydro-1H-isoindol-2-yl)piperidine-2,6-dione]	< 10	50 to 70	–
CC1(Oc2ccc3[nH]nc(-c4cc(N5CCC(CN6CCC(F)(CC7CCN(c8c(F)cc9c(c8F)CN(C8CCC(=O)NC8=O)C9=O)CC7)CC6)CC5)ncn4)c3c2)CC1 (centres unmarked) [Compound 242, 3-{4,6-difluoro-5-[4-({4-fluoro-1-[(1-{6-[5-(1-methylcyclopropoxy)-1H-indazol-3-yl]pyrimidin-4-yl}piperidin-4-yl)methyl]piperidin-4-yl}methyl)piperidin-1-yl]-1-oxo-2,3-dihydro-1H-isoindol-2-yl}piperidine-2,6-dione]	< 10	50 to 70	–
CC1(Oc2cc3c(-c4cc(N5CCC(CC6(F)CCN(CC7CCN(c8ccc9c(c8F)CN(C8CCC(=O)NC8=O)C9=O)CC7)CC6)CC5)ncn4)n[nH]c3cc2F)CC1 (centres unmarked) [Compound 207, 3-[4-fluoro-5-[4-[[4-fluoro-4-[[1-[6-[6-fluoro-5-(1-methylcyclopropoxy)-1H-indazol-3-yl]pyrimidin-4-yl]-4-piperidyl]methyl]-1-piperidyl]methyl]-1-piperidyl]-1-oxo-isoindolin-2-yl]piperidine-2,6-dione]	10 to 50	50 to 70	–
COc1c(N2CCN(CC3(F)CCN(CC4CCN(c5cc(-c6[nH]nc7ccc(OC8(C)CC8)cc67)ncn5)CC4)CC3)CC2)ccc2c1CN(C1CCC(=O)NC1=O)C2=O (centres unmarked) [Compound 246, 3-{5-[4-({4-fluoro-1-[(1-{6-[5-(1-methylcyclopropoxy)-2H-indazol-3-yl]pyrimidin-4-yl}piperidin-4-yl)methyl]piperidin-4-yl}methyl)piperazin-1-yl]-4-methoxy-1-oxo-2,3-dihydro-1H-isoindol-2-yl}piperidine-2,6-dione]	< 10	50 to 70	–
COc1c(N2CCC(O[C@H]3CCN(CC4CCN(c5cc(-c6n[nH]c7ccc(OC8(C)CC8)cc67)ncn5)CC4)C(C)(C)C3)CC2)ccc2c1CN(C1CCC(=O)NC1=O)C2=O (stereo partly drawn) [Compound 316, 3-[5-(4-{[(4S)-2,2-dimethyl-1-[(1-{6-[5-(1-methylcyclopropoxy)-1H-indazol-3-yl]pyrimidin-4-yl}piperidin-4-yl)methyl]piperidin-4-yl]oxy}piperidin-1-yl)-4-methoxy-1-oxo-2,3-dihydro-1H-isoindol-2-yl]piperidine-2,6-dione]	–	–	Dmax [1]: 50 to 70%; DC50 [2]: < 10 nM
